From PubChem BioAssay AID330 (DTP/NCI, 2004)
Toxic doses and inconclusive results are not listed. The calls were made as follows: active = survival T/C of 150% or more; inactive = T/C below 125% in these data.

System: P388 leukemia ip, CD2F1 mice, survival T/C
Test: NCI In Vivo Anticancer Drug Screen. Data for tumor model P388 Leukemia (intraperitoneal) in CD2F1 (CDF1) mice
Conditions: endpoint: median survival time, higher = longer survival
In short: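 Mice carrying the transplanted tumor received test compound or vehicle. Survival was recorded in each group, and the value is the treated-group measurement divided by that of the vehicle-treated control group.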

[1] = dose: 50.0 mg/kg/injection, schedule: Q01DX009 (ip), vehicle: saline
[2] = dose: 100.0 mg/kg/injection, schedule: Q01DX009 (ip), vehicle: saline
[3] = dose: 60.0 mg/kg/injection, schedule: Q01DX005 (ip), vehicle: saline with Tween-80
[4] = dose: 120.0 mg/kg/injection, schedule: Q01DX005 (ip), vehicle: saline with Tween-80
[5] = dose: 240.0 mg/kg/injection, schedule: Q01DX005 (ip), vehicle: saline with Tween-80

Measured: T/C

C=C1C(=O)C23C(OC(=O)CCCCC)C1CCC2C12COC3(O)C(O)C1C(C)(C)CCC2O (centres undefined)
inactive: dose: 3.75 mg/kg/injection, schedule: Q01DX009 (ip), vehicle: saline with Tween-80 102 % of control | dose: 7.5 mg/kg/injection, schedule: Q01DX009 (ip), vehicle: saline with Tween-80 105 % of control | dose: 15.0 mg/kg/injection, schedule: Q01DX009 (ip), vehicle: saline with Tween-80 113 % of control | dose: 30.0 mg/kg/injection, schedule: Q01DX009 (ip), vehicle: saline with Tween-80 104 % of control

O=C(Nc1ccc(Cl)cc1)NC1OC(=O)C(Cl)=C1Cl (centres undefined)
inactive: dose: 6.25 mg/kg/injection, schedule: Q01DX009 (ip), vehicle: saline 105 % of control | dose: 12.5 mg/kg/injection, schedule: Q01DX009 (ip), vehicle: saline 108 % of control | dose: 25.0 mg/kg/injection, schedule: Q01DX009 (ip), vehicle: saline 106 % of control | [1] 117 % of control | [2] 106 % of control

CC(C)S(=O)(=O)n1c(N)nc2ccc(/C(=N/O)c3ccccc3)cc21
inactive: dose: 50.0 mg/kg/injection, schedule: Q01DX005 (ip), vehicle: Klucel (hydroxypropylcellulose) (HPC) 100 % of control | dose: 100.0 mg/kg/injection, schedule: Q01DX005 (ip), vehicle: Klucel (hydroxypropylcellulose) (HPC) 101 % of control | dose: 200.0 mg/kg/injection, schedule: Q01DX005 (ip), vehicle: Klucel (hydroxypropylcellulose) (HPC) 95 % of control

CC(=O)NS(=O)(=O)c1ccc(N=CC2C(=O)N(c3ccccc3)N(c3ccccc3)C2=O)cc1
inactive: dose: 25.0 mg/kg/injection, schedule: Q01DX001 (ip), vehicle: Klucel (hydroxypropylcellulose) (HPC) 86 % of control | dose: 50.0 mg/kg/injection, schedule: Q01DX001 (ip), vehicle: Klucel (hydroxypropylcellulose) (HPC) 91 % of control | dose: 100.0 mg/kg/injection, schedule: Q01DX001 (ip), vehicle: Klucel (hydroxypropylcellulose) (HPC) 92 % of control

CNC(=O)c1ccccc1Sc1ccccc1C(=O)NC
inactive: dose: 100.0 mg/kg/injection, schedule: Q01DX001 (ip), vehicle: other 100 % of control | dose: 200.0 mg/kg/injection, schedule: Q01DX001 (ip), vehicle: other 101 % of control | dose: 400.0 mg/kg/injection, schedule: Q01DX001 (ip), vehicle: other 100 % of control

CSc1ncc(CO)c(N)n1
inactive: dose: 100.0 mg/kg/injection, schedule: Q04DX003 (ip), vehicle: Klucel (hydroxypropylcellulose) (HPC) 90 % of control | dose: 200.0 mg/kg/injection, schedule: Q04DX003 (ip), vehicle: Klucel (hydroxypropylcellulose) (HPC) 95 % of control | dose: 400.0 mg/kg/injection, schedule: Q04DX003 (ip), vehicle: Klucel (hydroxypropylcellulose) (HPC) 95 % of control

CC(=O)Nc1c(Cl)c(Cl)c2c(c1Cl)Cc1cc(Br)ccc1-2
inactive: dose: 100.0 mg/kg/injection, schedule: Q04DX003 (ip), vehicle: saline with Tween-80 109 % of control

CC(C)[Si](C#CC[Si](C(C)C)(C(C)C)C(C)C)(C(C)C)C(C)C
inactive: [3] 105 % of control | [4] 98 % of control | [5] 100 % of control

O=C(O)c1c(Cl)c(Cl)c(Cl)c(Cl)c1-c1c2ccc(=O)cc-2oc2cc(O)ccc12
inactive: [3] 100 % of control | [4] 100 % of control | [5] 96 % of control

Cn1cnc([N+](=O)[O-])c1Sc1ccc(Cl)cc1
inactive: dose: 0.79 mg/kg/injection, schedule: Q01DX009 (ip), vehicle: saline with Tween-80 104 % of control | dose: 1.56 mg/kg/injection, schedule: Q01DX009 (ip), vehicle: saline with Tween-80 104 % of control | dose: 3.12 mg/kg/injection, schedule: Q01DX009 (ip), vehicle: saline with Tween-80 97 % of control

Cn1ccnc1Sc1ccnc(Sc2ccc([N+](=O)[O-])cc2[N+](=O)[O-])n1
inactive: [1] 108 % of control | [2] 96 % of control | dose: 200.0 mg/kg/injection, schedule: Q01DX009 (ip), vehicle: saline 87 % of control

COC(=O)c1ccc(=O)c2nc3/c(=C/O)c(O)c(C)c(=O)c3[nH]c12
inactive: dose: 6.25 mg/kg/injection, schedule: Q01DX005 (ip), vehicle: other 117 % of control | dose: 12.5 mg/kg/injection, schedule: Q01DX005 (ip), vehicle: other 122 % of control

Oc1cc2c(cc1C(Nc1ccccn1)c1ccc3c(c1)OCO3)OCO2 (centres undefined)
inactive: [3] 108 % of control | [4] 108 % of control | [5] 95 % of control
